Measured values: patent US20030208035A1, “Antifungal and/or antibacterial peptides, preparation methods, compositions containing same and methods of treating mammals and/or plants” (priority 2000, published 2003)

Key:
[1] = test system: Candida albicans (IHEM 8060 strain); assay: Candida albicans infected model, lethal in mice (disseminated candidiasis); type: in vivo; details: for median mortality, time after infection / morbidity score at day 7: 4 injections; for morbidity score at day 7: 50 = all 10 mice healthy; for activity compared with Ard1 / mice alive on day 7 (out of 10) / time of onset of the 1st death: FIGS. 4-5, 10 mg/kg; for mice alive on day 7 (out of 10): placebo 5 alive; for time of onset of the 1st death: placebo day 2.5
Procedure: Heliomycin and its analogues were tested for in vivo antifungal activity in a model infected with Candida albicans, lethal in mice. The pathogenic agent Candida albicans (IHEM 8060 strain) was inoculated by intravenous route (i.v.) at a dose of 2.5×10^6 CFU/mouse. the peptides were administered by i.v. route in 4 injections 6 h, 24 h, 48 h and 72 h after infection. Assessment criteria for activity were evaluation of survival and morbidity at 7 days. The morbidity scores, which take into account general state of health (condition of fur, mobility, hydration) were determined for each mouse with values ranging from 0 to 5 and defined below: 0=dead, 1=moribund, 2=very ill, 3=ill, 4=slightly ill, 5=healthy. The sum of the individual scores was calculated for each group, a score of 50 for a group of 10 mice meaning that all the mice were healthy.
Following a standard protocol, groups of 10 Swiss OF1 male mice weighing 12 g were infected via i.v. route with a dose of 2.5×10^6 CFU/mouse. Heliomycin and Ard1 were administered by i.v. route in 4 injections, 6 h, 24 h, 48 h and 72 h after infection. For each peptide, 2 doses were tested: 10 mg/kg and 30 mg/kg. A placebo group was injected with peptide solvent, 0.9% sodium chloride.
In this experiment, inoculation of the mice with 2.5.10^6 CFU/mouse was 50% lethal at day 5 in the group which received placebo treatment. The first deaths occurred on post-infection day 2.5 and median mortality occurred on post-infection day 5. On day 7, 5 mice were alive and the morbidity score 15/50.
In this experiment, inoculation of Swiss OF1 mice weighing 15 g with 3.10^6 CFU of Candida albicans induces 50% mortality on day 4 after infection in the group treated with the placebo. The first deaths occur 2.5 days after infection, and 100% of the mice were dead on day 5.5.
In this experiment, inoculation of the mice with 2.5.10^6 CFU/mouse was 50% lethal at day 5 and 100% at day 8 for mice in the placebo group. The first death occurred 3 days after infection. The morbidity score fell rapidly below 30/50 (25/50 at day 2.5).
The pEM35 peptide was administered at doses of 10 and 30 mg/kg/injection with 3 daily doses for 4 days (1 h, 5 h and 10 h post-infection on day 0; at 8 h, 14 h and 20 h on days 1, 2 and 3), i.e., daily doses totalling 30 and 90 mg/kg.

Candida albicans = assay: anti-Candida albicans growth inhibition test in liquid medium (96-well microplates); type: cell-based; details: for Activity C.a. (relative activity in relation to heliomycin): fold relative to heliomycin; for Activity C.a. (relative activity in relation to Ard1): fold relative to Ard1
Procedure: (§1) The anti-Candida albicans and anti-Aspergillus fumigatus activities of the different analogues were assessed using a growth inhibition test in liquid medium made in 96-well microplates. The activity of the purified peptides was tested for different dilutions of each peptide and was compared with those of heliomycin and Ard1 quantified under the same conditions.
The activity test was made directly on yeasts derived from a stock frozen at −80° C., in Sabouraud medium containing 15% glycerol. The density of the yeasts in the stock was adjusted to an optical density of 0.4 OD at 600 nm. After slow thawing at room temperature, the yeast suspension was reduced by dilution to an optic density of 1 mOD at 600 nm in Sabouraud medium, and 90 μl of this dilution were deposited in the wells of microtitration plates in the presence of 10 μl of sample to be tested. Control samples were systematically made in which 10 μl of sample were replaced by 10 μl of sterile water. Media sterility was controlled by incubating 10 μl sterile water in the presence of 90 μl of medium. The samples were incubated at 30° C. for 40 h under slight stirring and the antifungal activity was quantified by measuring optic density at 600 nm.

Aspergillus fumigatus = assay: anti-Aspergillus fumigatus growth inhibition test in liquid medium (96-well microplates); type: cell-based; details: for Activity A.f. (relative activity in relation to heliomycin): fold relative to heliomycin; for Activity A.f. (relative activity in relation to Ard1): fold relative to Ard1
Procedure: as §1
The spores of Aspergillus fumigatus were derived from a stock frozen at −80° C., containing 10^7 spores/ml in a 25% glycerol solution. After slow thawing at room temperature, the spores were placed in suspension in PDB culture medium (12 g Potato Dextrose Broth medium, per […] water). 10 μl of each sample were deposited in the wells of microtitration plates in the presence of 90 μl PDB culture medium supplemented with tetracycline (100 μg/ml) and cefotaxime (1 μg/ml) containing the spores (at a final concentration of 1000 spores/well). Control cultures were systematically made in which 10 μl of sample were replaced by 10 μl of sterile water. Media sterility was controlled by incubating 10 μl sterile water in the presence of 90 μl of medium. The samples were incubated at 37° C. for 24 h to 48 h in a humid atmosphere, and the antifungal activity was quantified by a score of 0 to 9 taking germination account; the size and morphology of the hyphs were determined under the binocular microscope. […].

Row | Compound | Activity C.a. (relative activity in relation to heliomycin) (Candida albicans) | Activity A.f. (relative activity in relation to heliomycin) (Aspergillus fumigatus) | Activity C.a. (relative activity in relation to Ard1) (Candida albicans) | Activity A.f. (relative activity in relation to Ard1) (Aspergillus fumigatus) | further results
1 | Cc1cc(O)c2c3c4c(cc(O)c13)C(C)(C)C(=O)c1c(O)cc(O)c(c1-4)C2=O [Heliomycin, reference compound] |  |  |  |  | median mortality, time after infection ([1]; FIGS. 2-3, 10 mg/kg i.v.): 48 h; morbidity score at day 7 ([1]; FIGS. 2-3, 10 mg/kg i.v.): 0/50; median mortality, time after infection ([1]; FIGS. 2-3, 30 mg/kg i.v.): 60 h; morbidity score at day 7 ([1]; FIGS. 2-3, 30 mg/kg i.v.): 5/50; effect on survival rate ([1]; FIGS. 2-3, 2.5×10^6 CFU/mouse i.v., 10 and 30 mg/kg i.v., 4 injections 6, 24, 48, 72 h, 10 mice, placebo 100% lethal day 4): no significant effect
2 | DKLIGSCVWGAVNYTRDCNGECKRRGYKGGHCGSFANVNCWCET [pEM42, peptide derived from heliomycin] | 8 | 1 |  |  | 
3 | DKLIGSCVWGAVNYTRNCNAECKRRGYKGGHCGSFANVNCWCET [pEM50, peptide derived from Ard1] |  |  | 1-2 | 1 | 
4 | DKLIGSCVWGAVNYTSDCNGECKRRGYKGGHCGSFANINCWCET [pEM23, peptide derived from heliomycin] | 1 | 2 |  |  | 
5 | DKLIGSCVWGAVNYTSDCNGECKRRGYKGGHCGSFANVNCWCER [pEM7, peptide derived from heliomycin] | 4-8 | 1 |  |  | 
6 | DKLIGSCVWGAVNYTSDCNGECKRRGYKGGHCGSFANVNCWCQT [pEM21, peptide derived from heliomycin] | 2 | 10-20 |  |  | 
7 | DKLIGSCVWGAVNYTSDCNGECKRRGYKGGHCGSFINVNCWCET [pEM22, peptide derived from heliomycin] | 1-2 | 4-8 |  |  | 
8 | DKLIGSCVWGAVNYTSDCNGECKRRGYKGGHCGSFLNINCWCET [pEM24, peptide derived from heliomycin] | 4 | 8 |  |  | activity compared with Ard1 [1]: more active than Ard1; mice alive on day 7 (out of 10) [1]: 7 mice; time of onset of the 1st death [1]: 3 days
9 | DKLIGSCVWGAVNYTSDCNGECKRRGYKGGHCGSFLNVNCWCET [pEM25, peptide derived from heliomycin] | 10 | 6 |  |  | 
10 | DKLIGSCVWGAVNYTSDCRGECKRRGYKGGHCGSFANVNCWCET [pEM44, peptide derived from heliomycin] | 8 | 2 |  |  | 
11 | DKLIGSCVWGAVNYTSNCNAECKRRGYKGGHCGSFANINCWCET [pEM33, peptide derived from Ard1] |  |  | 1 | 1 | 
12 | DKLIGSCVWGAVNYTSNCNAECKRRGYKGGHCGSFANVNCWCER [pEM30, peptide derived from Ard1] |  |  | 4 | 0.5-1 | activity compared with Ard1 [1]: more active than Ard1; mice alive on day 7 (out of 10) [1]: 7 mice; time of onset of the 1st death [1]: 4 days
13 | DKLIGSCVWGAVNYTSNCNAECKRRGYKGGHCGSFINVNCWCER [pEM49, peptide derived from Ard1] |  |  | 3 | 1-2 | 
14 | DKLIGSCVWGAVNYTSNCNAECKRRGYKGGHCGSFINVNCWCET [pEM32, peptide derived from Ard1] |  |  | 1 | 2 | 
15 | DKLIGSCVWGAVNYTSNCNAECKRRGYKGGHCGSFINVNCWCQT [pEM47, peptide derived from Ard1] |  |  | 2-4 | 8 | 
16 | DKLIGSCVWGAVNYTSNCNAECKRRGYKGGHCGSFLNINCWCET [pEM34, peptide derived from Ard1] |  |  | 4 | 4 | 
17 | DKLIGSCVWGAVNYTSRCNAECKRRGYKGGHCGSFANVNCWCET [pEM52, peptide derived from Ard1] |  |  | 1-2 | 0.5 | 
18 | DKLIGSCVWGAVNYTTDCNGECKRRGYKGGHCGSFANVNCWCET [pEM43, peptide derived from heliomycin] | 1 | 2 |  |  | 
19 | DKLIGSCVWLAVNYTSNCNAECKRRGYKGGHCGSFANVNCWCET [pEM56, peptide derived from Ard1] |  |  | 1-2 | 0.5 | 
20 | DKLIGSCVWLAVNYTSNCNAECKRRGYKGGHCGSFANVNCWCQT [pEM57, peptide derived from Ard1] |  |  | 1 | 8 | 
21 | DKLIGSCVWLAVNYTSNCNAECKRRGYKGGHCGSFLNVNCWCET [pEM54, peptide derived from Ard1] |  |  | 1 | 1 | 
22 | DKLIGSCVWLAVNYTSNCNAECKRRGYKGGHCGSFLNVNCWCQT [pEM55, peptide derived from Ard1] |  |  | 1-2 | 2-7 | 
23 | DKLIGTCVWGAVNYTSDCNGECKRRGYKGGHCGSFANVNCWCET [pEM38, peptide derived from heliomycin] | 1 | 1 |  |  | 
24 | NKLIGSCVWGAVNYTSDCNGECKRRGYKGGHCGSFANVNCWCET [pEM37, peptide derived from heliomycin] | 2 |  |  |  | 
25 | NKLIGSCVWGAVNYTSDCNGECKRRGYKGGHCGSFANVNCWCQT [pEM39, peptide derived from heliomycin] | 2 | 4-8 |  |  | 
26 | NKLIGSCVWGAVNYTSDCNGECKRRGYKGGHCGSFINVNCWCQT [pEM62, peptide derived from heliomycin] | 3-6 | 2-4 |  |  | 
27 | NKLIGSCVWGAVNYTSDCNGECKRRGYKGGHCGSFLNVNCWCQT [pEM61, peptide derived from heliomycin] | 5-10 | 3-6 |  |  | 
28 | NKLIGSCVWGAVNYTSNCNAECKRRGYKGGHCGSFANVNCWCET [pEM40, peptide derived from Ard1] |  |  | 2 | 1 | 
